In ChEMBL document CHEMBL3044550, “Insect antifeedant potent 6-substituted -bromo-2-naphthones” (2011) one finds Activity data, which are given here for 9 molecules.

The source made the active and inactive calls. The calls are words filed in the database; no cut-off is given here.

The subject of the first assay is Achaea janata. The experiment in a line: Antifeedant activity against Achaea janata L. fourth-instar larvae fed on 100 ppm compound pre-treated castor leaves for 24 hrs assessed total leaf disks consumed in 24 hrs by leaf disk bioassay. It is filed as functional, organism-based.
Turning to `O=C(CBr)c1ccc2cc(Br)ccc2c1`, the outcome was Active.

The test system of a further assay is Achaea janata. Put plainly: Achaea janata L. fourth-instar larvae fed on 200 ppm compound pre-treated castor leaves for 24 hrs assessed total leaf disks consumed in 24 hrs by leaf disk bioassay. It is filed as functional.
Consider `CS(=O)(=O)c1ccc2cc(C(=O)CBr)ccc2c1`, for which the Activity is reported as 9.
On the same count and under the same terms, as for `O=C(CBr)c1ccc2cc(F)ccc2c1`, the figure is 5; as for `O=C(CBr)c1ccc2cc(Cl)ccc2c1`, 4.5.
Turning to `COc1ccc2cc(C(=O)CBr)ccc2c1`, the Activity was 4.
As for `O=C(CBr)c1ccc2cc(O)ccc2c1`, the Activity worked out at 4.
For `O=C(CBr)c1ccc2ccccc2c1`, the Activity is 6.5.
For `CSc1ccc2cc(C(=O)CBr)ccc2c1`, the Activity is 8.
Still for that read-out and setting: as for `Cc1ccc2cc(C(=O)CBr)ccc2c1`, the figure is 9.
The same measure, in the same setting: the result for `O=C(CBr)c1ccc2cc(Br)ccc2c1` reads 3.5.
